Data taken from patent US5663344A, “Method for the synthesis of huperzine A and analogs thereof and compounds useful therein” (Mayo Foundation for Medical Education and Research, priority 1994, dated 1997).

Target: T1, acetylcholinesterase (Rattus norvegicus, UniProt P37136)
T1 construct: synaptosome-rich fraction containing endogenous acetylcholinesterase enzyme; from tissue; host or cells: rat cerebral cortex, synaptosome-rich fraction (Whittaker's P2 fraction: synaptosomes and mitochondria)
T1 sequence (P37136 32-614): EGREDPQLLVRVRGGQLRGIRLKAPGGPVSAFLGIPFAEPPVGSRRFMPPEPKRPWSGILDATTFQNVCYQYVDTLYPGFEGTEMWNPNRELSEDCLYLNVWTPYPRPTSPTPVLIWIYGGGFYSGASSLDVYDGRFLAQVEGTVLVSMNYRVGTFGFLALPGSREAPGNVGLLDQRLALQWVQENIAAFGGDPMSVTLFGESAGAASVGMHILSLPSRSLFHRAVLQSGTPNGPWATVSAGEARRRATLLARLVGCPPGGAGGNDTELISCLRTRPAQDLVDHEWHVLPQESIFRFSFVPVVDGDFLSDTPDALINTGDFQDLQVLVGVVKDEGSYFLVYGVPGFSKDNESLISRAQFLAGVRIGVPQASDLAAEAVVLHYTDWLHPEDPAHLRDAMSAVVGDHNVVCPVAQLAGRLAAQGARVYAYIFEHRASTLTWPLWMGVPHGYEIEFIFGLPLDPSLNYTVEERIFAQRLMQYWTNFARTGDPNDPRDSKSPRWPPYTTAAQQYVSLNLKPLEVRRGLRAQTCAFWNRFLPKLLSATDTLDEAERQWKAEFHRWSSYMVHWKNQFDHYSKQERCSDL
Experiment: Inhibition of acetylcholinesterase in rat cortex synaptosome-rich fraction (hydrolysis of labelled acetylcholine)
Assay type: biochemical
Description: Rats were killed by decapitation and the brains were rapidly extirpated. The cortex was dissected out on ice according to the method of Glowinski and Iversen. […] Homogenates were centrifuged at 1000× g for 10 minutes to remove cell nuclei and heavy debris. […] A portion of this synaptosome-rich fraction was added in triplicate to ice-cold pH 7.4 Krebs-Ringer medium.
Assay of acetylcholinesterase was carried out according to the method of Johnson and Russell. See C. […] Acetylcholine labelled in the acetate moiety was enzymatically hydrolyzed by incubation for 10 minutes at room temperature in the presence of the above synaptosome-rich fraction containing endogenous acetylcholinesterase enzyme. The reaction was terminated by addition of a "stopping mixture" containing chloroacetic acid (1.0M), sodium hydroxide (0.5M) and sodium cloride (2.0M) to the reaction vial. Toluene-based scintillation fluid was added to the vial, to extract the released labelled acetate into the organic phase. […] Thus, the sample can be counted directly in the same reaction vial, in which the hydrolysis of sample by acetylcholinesterase has occurred.
Inhibition of cholinesterase activity was estimated, in triplicate, in the presence of a wide range of concentrations (10^-9 to 10^-3 M).

In the case of `CCC=C1C2C=C(C)CC1(N)c1ccc(=O)[nH]c1C2` (stereo not drawn) [1-carbon Analog], the “inhibition of the cholinesterase enzyme (in words)” value (compared with huperzine A) is reported as “inhibited the cholinesterase enzyme, but to a lesser extent than huperzine A”, the IC50 (read-out: IC50 (extent of cholinesterase enzyme inhibition), rat cortex synaptosome-rich fraction, 10 min, room temperature, triplicate, 10^-9 to 10^-3 M) is reported as 100 µM and the “IC50 /IC50 of Huperzine A” value (relative to synthesized huperzine A, the smaller this number, the more potent the compound) is reported as 166.6.
